Data set [1] deals with KSHV virus. To be noted: lytic stage; cited from earlier work.
Data set [2] relates to KSHV virus. To be noted: latent stage; cited from earlier work.
For the next data set, the target named is T1, MDM2-p53 complex (Homo sapiens, UniProt Q00987).
T1 construct: purchased Sigma
The experiment in a line: ELISA-based P53-MDM2 binding assay. On the procedure: In short, 96-well ELISA micro-plates (from Greiner Bio One, Austria) were coated for incubation overnight with 2 µg/mL p53 (human recombinant from Sigma) in PBS at 4 °C. The next day, the coating buffer was removed and the plates were incubated with Chemi-Blocker blocking buffer (from Merck-Millipore, Italy) for 2 hours at room temperature to block non-specific protein binding sites on the plate. […] The compounds under test were dissolved in DMSO (dimethyl sulfoxide, 5 mg/mL stock solution) and diluted in blocking buffer to obtain a final concentration of 50 µg/mL. The total incubation time of GST-MDM2 was 1 h. In order to evaluate the possible interactions of the compounds of the invention with, alternately, p53 and/or MDM2, the tests were conducted in three ways: a) pre-incubation with p53: the compounds were added to the coated micro-wells 30 min. before the GST-MDM2; b) pre-incubation with MDM2: the compounds were added to the GST-MDM2 solution for 30 minutes before adding to the wells; c) incubation after the formation of the p53-MDM2 complex: the compounds were added to the wells 30 minutes after treatment of GST-MDM2. After incubation, the plates were washed 4 times with PBST to remove the unbound MDM2 and incubated with a specific rabbit anti-GST monoclonal antibody (Sigma) diluted in 1/2000 blocking buffer for 1 h, followed by washing and incubation with a secondary immunoglobulin antibody conjugated with 1/200 anti-rabbit (horseradish) HR-peroxidase for 1 h (goat anti-rabbit IgG-HRP, Sigma). […] The absorbance was measured with a Microtiter plate reader (Model 680, from Bio-Rad, Hercules, CA) equipped with a 450 nm filter and the respective luminescence units (RLU) were measured. The inhibition percentage of the p53-MDM2 complex was calculated as follows: […]
Data are expressed as µg/mL ± SE average of three independent experiments.
(An ELISA detects its analyte on a solid surface through an enzyme-linked reagent.)

Another data set deals with HHV 8 in latent stage. The experiment in a line: Detection of latent HHV 8 DNA by RT-PCR in BC3 cells. Format: cell-based. To be noted: BC-3, 144 h, 6 days of culture, drug 100 µM, read-out: inhibition of viral DNA (antiviral activity). As for the experimental part:
The antiviral activity of the sulphonamide compounds of the present invention was investigated using two different types of tests. In the first one, the DNA of HHV 8 in latent stage was detected by RT-PCR (Real Time- Polymerase Chain Reaction) (see Fig. 1) and in the second one, the LANA antigen was tested using a flow cytometric assay.

A short description of data set [3]: Cytotoxicity (MTT cell viability) on HUVEC primary cells. In kind it is cell-based. To be noted: human. On the procedure: (§1) A stock of human HUVEC umbilical cord primary cells (Invitrogen Life Technologies, UK) was cultured in a culture medium M200 (Gibco, Life Technologies, UK) with low serum growth supplement (LSGS, Invitrogen Life Technologies, UK). The HUVEC cells were always kept in a semi-confluent state and were sub-cultured at least once a week. Prior to testing, the cells were sub-cultured no more than 3-5 times. The BC3 cells permanently infected with HHV 8 were cultured in a RPMI 1640 medium supplemented with a 10% fetal calf serum (FCS) (Invitrogen Life Technologies, UK). The BC3 cells were used to produce 100x concentrated stocks of HHV 8, as described in the literature. The pellets of the virus was suspended in RPMI, filtered through a 0.22 µm filter and stored at -80 °C until use. The quantitative analysis of viral genomes present in the stock preparation was obtained by a real-time polymerase chain reaction (qPCR). […] For infection of cells, approximately 5.0 x 10^4 HUVEC cells/mL were seeded in 12 multi-well plates. The cells were infected with HHV 8, concentrated to a multiplicity of at least 10-20 genomes per cell in an M200 containing 2 µg/mL polibrene (esadimetrin bromide) for 2 hours at 37 °C. […] Only cell mono-layers with at least 70-80% of HHV 8 infected cells were used for the experiments.

Data set [4] is described as follows: Cytotoxicity (MTT cell viability) on BC3 cells. Format: cell-based. To be noted: human. On the procedure:
as §1

Another data set in a line: in vitro. To be noted: human, thp-1 cells.
[5] abbreviates: read-out: inhibition of MDM2-p53 complex formation.

In brackets after ≈: the same amount, converted by molar mass. Read-outs that look alike come from different tables or passages of the source.

T1 sequence (Q00987 whole entry, one chain of several): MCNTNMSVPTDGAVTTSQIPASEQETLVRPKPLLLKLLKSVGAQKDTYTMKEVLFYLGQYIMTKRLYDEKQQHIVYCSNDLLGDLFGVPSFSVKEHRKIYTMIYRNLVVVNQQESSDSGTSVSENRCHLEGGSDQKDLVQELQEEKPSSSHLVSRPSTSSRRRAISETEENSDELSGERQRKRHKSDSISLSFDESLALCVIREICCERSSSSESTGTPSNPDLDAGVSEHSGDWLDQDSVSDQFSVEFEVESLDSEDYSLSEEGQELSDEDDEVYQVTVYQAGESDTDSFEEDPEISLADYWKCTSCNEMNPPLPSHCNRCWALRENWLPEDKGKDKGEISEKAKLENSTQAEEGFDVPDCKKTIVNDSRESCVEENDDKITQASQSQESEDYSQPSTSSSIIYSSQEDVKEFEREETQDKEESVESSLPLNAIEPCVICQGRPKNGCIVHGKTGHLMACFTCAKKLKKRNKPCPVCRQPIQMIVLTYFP
Procedure for in vitro: The THP-1 cells were purchased from Life Technologies (UK) and were cultured in RPMI 1640 medium with 10% fetal bovine serum (FBS).
The cytotoxicity of the compounds under test was assessed by measuring the effect on the cell morphology and the cell viability in vitro. Cell mono-layers were prepared in 24-well tissue culture plates and exposed to various concentrations of the compounds being tested.
The plates were controlled by optical microscopy after 24, 48 and 72 h. Cytotoxicity was evaluated as morphologic changes (for example, rounding, contractions, detachments). The cell viability was determined by means of a tetrazolium-based colorimetric method using the compound 3-(4,5-dimethylthiazol-2-yl)-2,5-diphenyl-tetrazolium bromide (MTT). The cytotoxic dose of 50% (CD50) is the concentration of the compound which reduces the absorbency of the control sample by 50%.

In the case of `Nc1nc2c(ncn2COCCO)c(=O)[nH]1` [Acyclovir], the “Action on the lytic virus” value with KSHV virus [1] is recorded as “inhibition”. Further, the “Action on the latent virus” value in the data set on KSHV virus [2] is “no inhibition”.
`Cc1cc(NS(=O)(=O)c2ccc(N)cc2)no1` [BC6, sulfamethoxazole]: the inhibition at 50 µg/mL at MDM2-p53 complex (setting [5]) was found to be 56%. Also, the inhibition at 100 µM with HHV 8 in latent stage is 93%.
For `O=C(O)P(=O)(O)O` [Foscarnet], the “Action on the lytic virus” value with KSHV virus [1] is “inhibition”. In addition, in the data set with KSHV virus [2], the “Action on the latent virus” value was “no inhibition”.
With `CC1(C)[C@@H](O[C@H]2O[C@H](C(=O)O)[C@@H](O)[C@H](O)[C@H]2O[C@@H]2O[C@H](C(=O)O)[C@@H](O)[C@H](O)[C@H]2O)CC[C@]2(C)[C@H]3C(=O)C=C4[C@@H]5C[C@@](C)(C(=O)O)CC[C@]5(C)CC[C@@]4(C)[C@]3(C)CC[C@@H]12` [Glycyrrhizic acid], the “Action on the lytic virus” value with KSHV virus [1] is “inhibition”. Also, in the data set with KSHV virus [2], the “Action on the latent virus” value was “Apoptosis”.
Turning to `Nc1ccc(S(N)(=O)=O)cc1` [SA4, sulphanilamide], the inhibition at 50 µg/mL on MDM2-p53 complex (setting [5]) amounted to 50%. In addition, the inhibition at 100 µM with HHV 8 in latent stage came out at 92%.
For the molecule `[H]/N=C(/N)NS(=O)(=O)c1ccc(N)cc1` [SG3, sulphaguanidine], the CC50 (usually the concentration giving 50% cytotoxicity) in data set [3] was around 500 µg/mL (≈ 2330 µM); in data set [4], 100 µg/mL (≈ 467 µM); in the data set “in vitro” it was around 125 µg/mL (≈ 583 µM). Further, the inhibition at 100 µM in the data set on HHV 8 in latent stage turned out to be 52.3%.
For `Nc1ccc(S(=O)(=O)Nc2nccs2)cc1` [ST5, sulfathiazole], the CC50 in data set [3] is around 250 µg/mL (≈ 979 µM); in data set [4] it was 100 µg/mL (≈ 393 µM); in the data set “in vitro”, around 30 µg/mL (≈ 117 µM). For the same molecule, the inhibition at 50 µg/mL was around 48% at MDM2-p53 complex (added to the ELISA wells 60 minutes after the complex had formed, 50 µg/mL, p = < 0.01, read-out: breaking down the complex already formed) and around 70% at MDM2-p53 complex (compound added before the formation of the complex, 50 µg/mL, read-out: inhibition of MDM2-p53 complex formation). Also, the inhibition at 100 µM in the data set on HHV 8 in latent stage was 88.5%.

The record behind these values is patent EP3235511A1, “SULPHONAMIDE COMPOUNDS FOR USE IN THE TREATMENT OF HHV-8-ASSOCIATED DISEASES” (UNIVERSITA' DEGLI STUDI DI CAGLIARI, priority 2016, dated 2017).
